Experimental findings from patent US20060189512A1, “Compositions containing botanical extracts rich in phlorizin and methods for using such compositions in blood glucose modification and to affect aging” (priority 2005, published 2006) are described below.

For the experiment, the target named is T1, SIRT1 (histone deacetylase) (Homo sapiens, UniProt Q96EB6).
T1 construct: purchased BIOMOL Research Laboratories, Inc., Plymouth Meeting, Pa
T1 sequence (Q96EB6 1-747): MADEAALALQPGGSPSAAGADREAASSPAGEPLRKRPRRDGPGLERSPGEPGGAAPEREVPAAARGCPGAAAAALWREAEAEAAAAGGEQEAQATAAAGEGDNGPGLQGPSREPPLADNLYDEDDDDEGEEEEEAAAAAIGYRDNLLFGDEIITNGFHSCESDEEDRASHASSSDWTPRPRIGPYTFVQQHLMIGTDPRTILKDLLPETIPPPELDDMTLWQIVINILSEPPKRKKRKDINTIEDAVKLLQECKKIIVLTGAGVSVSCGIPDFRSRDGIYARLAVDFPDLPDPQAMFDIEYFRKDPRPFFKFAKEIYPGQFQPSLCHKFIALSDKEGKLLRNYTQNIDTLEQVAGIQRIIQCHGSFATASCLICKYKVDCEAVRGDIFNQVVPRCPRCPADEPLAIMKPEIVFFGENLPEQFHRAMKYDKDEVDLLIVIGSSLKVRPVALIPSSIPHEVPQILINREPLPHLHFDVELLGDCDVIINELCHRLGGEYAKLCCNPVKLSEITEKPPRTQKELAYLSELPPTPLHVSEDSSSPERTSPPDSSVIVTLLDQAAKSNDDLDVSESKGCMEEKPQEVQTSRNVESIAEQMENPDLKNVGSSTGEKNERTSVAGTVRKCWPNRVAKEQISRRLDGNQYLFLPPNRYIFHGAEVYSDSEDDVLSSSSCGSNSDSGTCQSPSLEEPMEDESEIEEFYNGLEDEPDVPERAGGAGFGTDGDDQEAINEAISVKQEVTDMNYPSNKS
Description: Cell-based fluorescence deacetylase assay, SIRT1 Fluorimetric Drug Discovery Kit (BIOMOL). From the text:
A cell-based fluorescence deacetylase assay, SIRT1 Fluorimetric Drug Discovery Kit, obtained from BIOMOL Research Laboratories, Inc., Plymouth Meeting, Pa. was used to measure the effects of various polyphenols in apple extract on histone deacetylase activity.

Take `O=c1c(O)c(-c2ccc(O)c(O)c2)oc2cc(O)cc(O)c12` [Quercetin]: the Histone deacetylase activity (concentration 500 micromolar) was determined as 4.59 × baseline.
Same read-out and setting: the same measure for Catechins: 1.26-1.53 × baseline; for `O=C(CCc1ccc(O)cc1)c1c(O)cc(O)cc1O` [Phloretin]: 1.94 × baseline.
Turning to `O=C(CCc1ccc(O)cc1)c1c(O)cc(O)cc1O[C@@H]1O[C@H](CO)[C@@H](O)[C@H](O)[C@H]1O` [Phlorizin], the Histone deacetylase activity (concentration 100 micromolar) came out at 1.36 × baseline.
